Data from US6469033B1, “Use of 1-hydroxy-2-pyridones for the treatment of skin diseases” (Aventis Pharma Deutschland GmbH, priority 1996, dated 2002).
≈ marks a conversion by molar mass, not a printed value. Like-named read-outs stand apart in the source and are kept apart here.

How the values were obtained:
enterococci = conditions: isolates from various centers; cited from earlier work
Propionibacteria = conditions: acne patients pretreated with antibiotics; cited from earlier work
[1] = system: Staphylococcus epidermidis; conditions: acne patients pretreated with antibiotics; cited from earlier work
Propionibacterium acnes = assay: Agar dilution MIC, anaerobic bacteria (Wilkins-Chalgren agar); type: cell-based
Procedure: (§1) The lowest concentration at which growth was no longer to be observed was designated as the MIC.
In vitro activity of 1-hydroxy-4-methyl-6-cyclohexyl-2(1H)pyridone against anaerobic bacteria (the testing was carried out in an agar dilution test using Wilkins-Chalgren agar (Oxoid).

Strept. durans = assay: Agar dilution MIC, aerobic bacteria (Mueller-Hinton agar); type: cell-based; conditions: Enterococcus durans, 24 h, 10 strains; number in brackets = strains with that MIC; 24 hours at 37° C.
Procedure: (§2) Determination of the antibacterial activity of 1-hydroxy-4-methyl-6-cyclohexyl-2(1H)pyridone to skin-pathogenic gram-positive and gram-negative aerobic bacteria.
(§3) The minimal inhibitory concentration (MIC) was determined in an agar dilution test in Mueller-Hinton agar. The active compound was first dissolved in dimethyl sulfoxide at 10% strength and then diluted to twice the amount in each case in equal stages with agar so that in the end effect concentrations between 128 μg/ml and 1 μg/ml were obtained. Overnight cultures of the bacterial strains to be tested were diluted with liquid medium and employed as inoculum. The bacterial suspensions (1×10^5 cfu/ml) were applied to the surface of the active compound-containing agar plates. With the exception of the methicillin-resistant strains of Staphylococcus aureus (MRSA) and Staphylococcus epidermidis (MRSE), the MIC values were read off after 24 hours at 37° C.(MRSA and MRSE: 48 hours at 30° C.).
as §1
(§4) Using known methods, the antibiotic-resistant bacteria investigated can be isolated from patients or from hospitals in which antibiotic resistance has been found. The other bacterial species mentioned can be isolated easily by a person skilled in the art on account of their species and generic name or ordered from a strain collection.

[2] = system: S. aureus, methicillin-resistant MRSA; assay: as above; type: cell-based; conditions: Staphylococcus aureus, 19 strains, read after 48 hours at 30° C.
Procedure: as §2, §3, §1, §4

Klebsiella pneumoniae = assay: as above; type: cell-based; conditions: 2 strains, number in brackets = strains with that MIC, 24 hours at 37° C.
Procedure: as §2, §3, §1, §4

[3] = system: Staphylococcus epidermidis; assay: as above; type: cell-based; conditions: 20 strains, 24 hours at 37° C.
Procedure: as §2, §3, §1, §4

[4] = system: S. epidermidis, ofloxacin-resistant, OFX^r; assay: as above; type: cell-based; conditions: Staphylococcus epidermidis; 4 strains; 24 hours at 37° C.
Procedure: as §2, §3, §1, §4

Proteus vulgaris = assay: as above; type: cell-based; conditions: 3 strains, number in brackets = strains with that MIC, 24 hours at 37° C.
Procedure: as §2, §3, §1, §4

Escherichia coli = assay: as above; type: cell-based; conditions: 3 strains, 24 hours at 37° C.
Procedure: as §2, §3, §1, §4

Enterobacter aerogenes = assay: as above; type: cell-based; conditions: Klebsiella aerogenes; 1 strain; 24 hours at 37° C.
Procedure: as §2, §3, §1, §4

Enterobacter cloacae = assay: as above; type: cell-based; conditions: 1 strain, 24 hours at 37° C.
Procedure: as §2, §3, §1, §4

Staphylococcus aureus = assay: as above; type: cell-based; conditions: 20 strains, read after 24 hours at 37° C.
Procedure: as §2, §3, §1, §4

Streptococcus pyogenes = assay: as above; type: cell-based; conditions: 20 strains, 24 hours at 37° C.
Procedure: as §2, §3, §1, §4

[5] = system: S. epidermidis, methicillin-resistant, MRSE; assay: as above; type: cell-based; conditions: Staphylococcus epidermidis, 2 strains, 48 hours at 30° C.
Procedure: as §2, §3, §1, §4

Pseudomonas aeruginosa = assay: as above; type: cell-based; conditions: 5 strains, 24 hours at 37° C.
Procedure: as §2, §3, §1, §4

Strept. faecium = assay: as above; type: cell-based; conditions: Enterococcus faecium; 1 strain; 24 hours at 37° C.
Procedure: as §2, §3, §1, §4

[6] = system: Strept. faecium, vancomycin-resistant, VAN^r; assay: as above; type: cell-based; conditions: Enterococcus faecium; 1 strain; 24 hours at 37° C.
Procedure: as §2, §3, §1, §4

Strept. agalactiae = assay: as above; type: cell-based; conditions: Streptococcus agalactiae; 9 strains; 24 hours at 37° C.
Procedure: as §2, §3, §1, §4

Strept. faecalis = assay: as above; type: cell-based; conditions: 3 strains, number in brackets = strains with that MIC, 24 hours at 37° C.
Procedure: as §2, §3, §1, §4

Strept. equisimilis = assay: as above; type: cell-based; conditions: Streptococcus dysgalactiae; 1 strain; 24 hours at 37° C.
Procedure: as §2, §3, §1, §4

[7] = system: S. aureus, ofloxacin-resistant, OFX^r; assay: as above; type: cell-based, Staphylococcus aureus; conditions: 16 strains, number in brackets = strains with that MIC, 24 hours at 37° C.
Procedure: as §2, §3, §1, §4

## gentamycin
enterococci
  resistances, share of isolates: up to 50%

## CC[C@H]1OC(=O)[C@H](C)[C@@H](O[C@H]2C[C@@](C)(OC)[C@@H](O)[C@H](C)O2)[C@H](C)[C@@H](O[C@@H]2O[C@H](C)C[C@H](N(C)C)[C@H]2O)[C@](C)(O)C[C@@H](C)C(=O)[C@H](C)[C@@H](O)[C@]1(C)O [erythromycin]
Propionibacteria
  resistances found, share of the cases: 36%
[1]
  resistances found, share of the cases: 90%

## Cc1cc(C2CCCCC2)n(O)c(=O)c1 [1-hydroxy-4-methyl-6-cyclohexyl-2(1H)pyridone]
Propionibacterium acnes; Cutibacterium acnes, DSM20458, Strain DSM 20458, read-out: MIC
  MIC: 32 µg/mL (≈ 154 µM)
Propionibacterium acnes; Cutibacterium acnes, Strain 6919, read-out: MIC
  MIC: 32 µg/mL (≈ 154 µM)
Propionibacterium acnes; Strain 6922
  MIC: 32.0 µg/mL (≈ 154 µM)
Propionibacterium acnes; Strain 15549
  MIC: 32.0 µg/mL (≈ 154 µM)
Strept. durans
  MIC: 64 µg/mL (≈ 309 µM)
[2]
  MIC: 64 µg/mL (≈ 309 µM)
Klebsiella pneumoniae
  MIC: 128 µg/mL (≈ 618 µM)
Klebsiella pneumoniae; Klebsiella pneumoniae, 24 h, read-out: MIC
  MIC: 64 µg/mL (≈ 309 µM)
[3]
  MIC: 128 µg/mL (≈ 618 µM)
[4]
  MIC: 64 µg/mL (≈ 309 µM)
Proteus vulgaris
  MIC: 64 µg/mL (≈ 309 µM)
Proteus vulgaris; Proteus vulgaris, 24 h, read-out: MIC
  MIC: 32 µg/mL (≈ 154 µM)
Escherichia coli
  MIC: 64 µg/mL (≈ 309 µM)
Enterobacter aerogenes
  MIC: 128 µg/mL (≈ 618 µM)
Enterobacter cloacae
  MIC: 128 µg/mL (≈ 618 µM)
Staphylococcus aureus
  MIC: 64 µg/mL (≈ 309 µM)
Streptococcus pyogenes
  MIC: 64 µg/mL (≈ 309 µM)
[5]
  MIC: 64 µg/mL (≈ 309 µM)
Pseudomonas aeruginosa
  MIC: 128 µg/mL (≈ 618 µM)
Strept. faecium
  MIC: 128 µg/mL (≈ 618 µM)
[6]
  MIC: 32 µg/mL (≈ 154 µM)
Strept. agalactiae
  MIC: 128 µg/mL (≈ 618 µM)
Strept. faecalis
  MIC: 128 µg/mL (≈ 618 µM)
Strept. faecalis; Enterococcus faecalis, 24 h, read-out: MIC
  MIC: 64 µg/mL (≈ 309 µM)
Strept. equisimilis
  MIC: 128 µg/mL (≈ 618 µM)
[7]
  MIC: 128 µg/mL (≈ 618 µM)
[7]; Staphylococcus aureus, 24 h, read-out: MIC
  MIC: 64 µg/mL (≈ 309 µM)
